In patent US20240228448A1 (Washington University, priority 2021, published 2024):
Several values for one entry are separate records, joined by “and”; a condition that tells them apart may be missing. Identical values can stand only once. Like-named read-outs stand apart in the source and are kept apart here.

Experiments:
S1P1 = S1P1 (Homo sapiens, UniProt P21453); assay: competitive S1Ps cell membrane binding assay against [32P]S1P, S1P1
Text: (§1) One way to measure affinity is use of a general competition binding assay.

S1P4 = biological target: T1, S1P4 (Homo sapiens, UniProt O95977); assay: competitive S1Ps cell membrane binding assay against [32P]S1P, S1P4; conditions: Table 6; read-out: IC50 for S1P4
T1 sequence (O95977 1-384): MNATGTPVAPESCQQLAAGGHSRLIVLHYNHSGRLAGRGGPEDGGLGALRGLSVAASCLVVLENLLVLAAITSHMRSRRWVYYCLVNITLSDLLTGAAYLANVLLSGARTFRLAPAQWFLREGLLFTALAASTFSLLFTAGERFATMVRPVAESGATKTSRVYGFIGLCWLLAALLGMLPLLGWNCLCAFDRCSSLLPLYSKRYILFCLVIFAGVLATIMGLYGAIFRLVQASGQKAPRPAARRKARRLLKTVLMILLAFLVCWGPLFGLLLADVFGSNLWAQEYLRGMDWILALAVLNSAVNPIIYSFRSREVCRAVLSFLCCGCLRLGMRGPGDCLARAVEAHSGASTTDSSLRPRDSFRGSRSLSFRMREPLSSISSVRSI

S1P2 = S1P2 (Homo sapiens, UniProt O95136); assay: competitive S1Ps cell membrane binding assay against [32P]S1P, S1P2; conditions: Table 6
Sequence of S1P2 (O95136 whole entry, species assumed): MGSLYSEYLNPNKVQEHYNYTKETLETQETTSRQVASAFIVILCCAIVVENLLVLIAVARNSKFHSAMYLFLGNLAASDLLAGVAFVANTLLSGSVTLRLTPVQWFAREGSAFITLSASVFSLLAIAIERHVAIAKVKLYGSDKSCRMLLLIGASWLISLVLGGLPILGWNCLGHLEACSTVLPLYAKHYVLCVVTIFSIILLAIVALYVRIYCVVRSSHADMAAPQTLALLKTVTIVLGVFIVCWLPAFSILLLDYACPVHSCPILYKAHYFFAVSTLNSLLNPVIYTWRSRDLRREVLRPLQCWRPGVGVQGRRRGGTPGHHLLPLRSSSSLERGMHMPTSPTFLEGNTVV

S1P3 = S1P3 (Homo sapiens, UniProt Q99500); assay: competitive S1Ps cell membrane binding assay against [32P]S1P, S1P3; conditions: Table 6
Sequence of S1P3 (Q99500 whole entry, species assumed): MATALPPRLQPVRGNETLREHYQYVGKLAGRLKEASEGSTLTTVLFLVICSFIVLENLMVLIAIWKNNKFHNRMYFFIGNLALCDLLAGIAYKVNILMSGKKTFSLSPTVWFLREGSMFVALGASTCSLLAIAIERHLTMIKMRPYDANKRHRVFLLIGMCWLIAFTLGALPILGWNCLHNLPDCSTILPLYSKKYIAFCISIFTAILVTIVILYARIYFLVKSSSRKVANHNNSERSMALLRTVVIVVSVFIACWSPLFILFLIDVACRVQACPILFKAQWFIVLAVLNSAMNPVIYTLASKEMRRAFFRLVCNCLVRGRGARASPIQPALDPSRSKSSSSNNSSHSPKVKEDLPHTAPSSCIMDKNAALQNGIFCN

S1P5 = S1P5 (Homo sapiens, UniProt Q9H228); assay: competitive S1Ps cell membrane binding assay against [32P]S1P, S1P5
Sequence of S1P5 (Q9H228 whole entry, species assumed): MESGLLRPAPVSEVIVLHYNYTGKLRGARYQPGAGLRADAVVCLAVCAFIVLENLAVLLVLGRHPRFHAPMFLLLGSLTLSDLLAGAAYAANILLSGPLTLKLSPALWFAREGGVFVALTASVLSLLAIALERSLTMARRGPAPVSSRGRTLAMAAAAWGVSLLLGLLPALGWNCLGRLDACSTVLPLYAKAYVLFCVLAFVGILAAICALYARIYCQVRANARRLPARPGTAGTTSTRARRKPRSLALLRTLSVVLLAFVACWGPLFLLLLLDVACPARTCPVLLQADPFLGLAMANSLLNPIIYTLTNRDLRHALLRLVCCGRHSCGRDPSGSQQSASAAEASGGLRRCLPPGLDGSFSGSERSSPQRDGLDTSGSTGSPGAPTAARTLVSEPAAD
Text: as §1

[1] = MicroPET brain study in cynomolgus macaque; conditions: for brain uptake in nonhuman primates: MicroPET, in words
Procedure: Using a Focus 220 microPET scanner to collect dynamic scans for 2 hours after intravenous injection of ˜0.35 GBq dose into male macaques. Radiometabolites were measured from arterial blood samples collected at 5, 15, 30, and 60 min post-injection of radiotracer. The HPLC eluent was collected, and fractions were counted in a gamma counter.
Male macaques (˜10 kg) were used for PET imaging data acquisition with a microPET Focus 220 scanner (Siemens Inc., Knoxville, TN). Animals were anesthetized using ketamine and glycopyrrolate and maintained with inhalation of isoflurane. Core temperature was kept at 37° C. with a heated water blanket. The head was secured in a customized head holder. […] Emission data were corrected for dead time, scatter, and attenuation and then reconstructed. […] Predefined brain regions of interest from the template were applied to the co-registered PET image to obtain regional time-activity curves. The measurement of the brain uptake of radiotracer was standardized to body weight and the dose of radioactivity injected to yield a standardized uptake value (SUV).
The brain uptakes of these tracers were measured by Focus 220 microPET scanner to collect dynamic scans for 2 hours after intravenous injection of ˜0.35 GBq dose into male cynomolgus macaques (8-9 kg).

[2] = Human biodistribution / dosimetry PET study of [11C]CS1P1; type: in vivo
Procedure: One human (88 kg, SIEMENS, patient ID: 1179101) was imaged with a dose of 7.2 mCi (FIG. 10A). Good uptake was found in the brain (FIG. 10B). Residence time and total absorbed dose in individual organs was also measured (FIG. 10C and Table 4).

[3] = read-out: IC50 (nM) S1P1, Table 5
[4] = Table 5, read-out: IC50 (nM) S1P5

Sequence of S1P1 (P21453 whole entry, species assumed): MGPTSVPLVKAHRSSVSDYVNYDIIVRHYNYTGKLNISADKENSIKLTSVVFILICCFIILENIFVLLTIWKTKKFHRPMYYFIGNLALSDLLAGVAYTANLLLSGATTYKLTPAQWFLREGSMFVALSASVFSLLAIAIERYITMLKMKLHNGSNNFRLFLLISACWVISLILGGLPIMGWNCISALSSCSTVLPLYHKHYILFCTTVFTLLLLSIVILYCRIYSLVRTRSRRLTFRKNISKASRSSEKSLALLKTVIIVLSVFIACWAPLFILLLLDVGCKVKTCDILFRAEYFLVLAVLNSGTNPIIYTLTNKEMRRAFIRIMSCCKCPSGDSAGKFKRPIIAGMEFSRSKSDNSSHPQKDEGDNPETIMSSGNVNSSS

SMILES | IC50 (S1P1; IC50 (nM) S1P1, Table 5) | IC50 (S1P5; [4]) | other results
CNc1cccc(-c2noc(-c3ccc(OCCF)c(C(F)(F)F)c3)n2)c1 [TZ82-41] | 82 ± 1.8 nM |  | 
Nc1cccc(-c2noc(-c3ccc(OCCF)c(C(F)(F)F)c3)n2)c1 [TZ82-42] | 29 ± 0.5 nM |  | 
Nc1ccc(-c2noc(-c3ccc(OCCF)c(C(F)(F)F)c3)n2)cc1 [TZ82-43] | 44 ± 0.6 nM |  | 
Cc1ccccc1-c1ccc(-c2nc(-c3ccc(CN(C)CCO)c(F)c3)no2)cc1C(F)(F)F [TZ82-51] |  |  | IC50 (S1P4): > 1000 nM; IC50 (S1P2): > 1000 nM; IC50 (S1P3): 454 nM
Cc1ccccc1-c1ccc(-c2nc(-c3ccc(CN(C)CCCO)c(F)c3)no2)cc1C(F)(F)F [TZ82-52] |  |  | IC50 (S1P4): > 1000 nM; IC50 (S1P2): > 1000 nM; IC50 (S1P3): 418 nM
Cc1ccccc1-c1ccc(-c2nc(-c3ccc(CN(C)CCCCO)c(F)c3)no2)cc1C(F)(F)F [TZ82-53] |  |  | IC50 (S1P1; [3]): 4.9 nM
CN(CCC(=O)O)Cc1ccc(-c2noc(-c3ccc(OCc4cccnc4F)c(C(F)(F)F)c3)n2)cc1F [TZ82-55] | 159 nM | 74.4 nM | 
CN(CCC(=O)O)Cc1ccc(-c2noc(-c3ccc(OCc4cccc(F)n4)c(C(F)(F)F)c3)n2)cc1F [TZ82-56] | 55.4 nM | 39.3 nM | 
Cc1ccccc1-c1ccc(-c2nc(-c3ccc(CN(C)CCC(=O)O)c(Br)c3)no2)cc1C(F)(F)F [TZ82-65] | 2.1 nM | 11 nM | 
Cc1ccccc1-c1ccc(-c2nc(-c3ccc(COCCCO)c(F)c3)no2)cc1C(F)(F)F [TZ82-78] | 2.8 nM |  | 
OCc1ccc(-c2noc(-c3ccc(OCc4cccnc4F)c(C(F)(F)F)c3)n2)cc1 [TZ82-91] | 239 nM | 182 nM | 
OCc1ccc(-c2noc(-c3ccc(OCc4cccc(F)n4)c(C(F)(F)F)c3)n2)cc1 [TZ82-92] | 243 nM | 934 nM | 
Cc1ccccc1-c1ccc(-c2nc(-c3ccc(CNCCC(=O)O)c(F)c3)no2)cc1C(F)(F)F [TZ82-94] | 0.7 nM | 7.2 nM | 
Cc1ccccc1-c1ccc(-c2nc(-c3ccc(CNCCCO)c(F)c3)no2)cc1C(F)(F)F [TZ82-95] |  | 12.8 nM | IC50 (S1P1; [3]): 2.1 nM
Cc1ccccc1-c1ccc(-c2nc(-c3ccc(CN(C)CCS(=O)(=O)O)c(F)c3)no2)cc1C(F)(F)F [TZ82-101] | 2.3 nM |  | 
Cc1ccccc1-c1ccc(-c2nc(-c3ccc(CN(C)CCNC(=O)OC(C)(C)C)c(F)c3)no2)cc1C(F)(F)F [TZ82-102] | 23.8 nM |  | 
Cc1ccccc1-c1ccc(-c2nc(-c3ccc(CNO)c(F)c3)no2)cc1C(F)(F)F [TZ82-105] | 8.7 nM |  | 
CNCc1ccc(-c2noc(-c3ccc(OCCF)c(C(F)(F)F)c3)n2)cc1F [TZ82-110] | 13.4 nM |  | 
CN(CCCO)Cc1ccc(-c2noc(-c3ccc(OCCF)c(C(F)(F)F)c3)n2)cc1F [TZ82-112] | 15.8 nM | 234 nM | IC50 (S1P1; IC50 for S1P1 (nM), Table 6, single determinations): 15.8 nM and 2.03 nM and 8.17 nM; IC50 (S1P5; Table 6, read-out: IC50 for S1P5): > 1000 nM; IC50 (S1P4): > 1000 nM; IC50 (S1P2): > 1000 nM; IC50 (S1P3): 746 nM
CN(CCO)Cc1ccc(-c2noc(-c3ccc(OCCF)c(C(F)(F)F)c3)n2)cc1F [TZ82-114] | 14.6 nM | 120 nM | 
CN(CCCCO)Cc1ccc(-c2noc(-c3ccc(OCCF)c(C(F)(F)F)c3)n2)cc1F [TZ82-115] |  | 721 nM | 
CNC(=O)CCN(C)Cc1ccc(-c2noc(-c3ccc(-c4ccccc4C)c(C(F)(F)F)c3)n2)cc1F [TZ82-118] | 3 nM |  | 
CN(CCCO)Cc1ccc(-c2noc(-c3ccc(OCCF)c(C(F)(F)F)c3)n2)cc1 [TZ82-124] |  | 450 nM | 
COc1ccc(-c2nc(-c3ccc(CN(C)CCCO)cc3)no2)cc1C(F)(F)F [TZ82-126] |  | 1940 nM | 
Cc1ccccc1-c1ccc(-c2nc(-c3ccc(CN([11CH3])CCC(=O)O)c(F)c3)no2)cc1C(F)(F)F [[^11C]CS1P1] |  |  | brain uptake, maximum SUV value ([1]; macaque brain, from 20 to 120 min post-injection): ~2.3; total absorbed dose ([2]; Brain, human): 1.02 ± 0.1 μGy/MBq; total absorbed dose ([2]; Gall bladder, human): 4.82 ± 0.19 μGy/MBq; total absorbed dose ([2]; Heart wall, human): 2.06 ± 0.13 μGy/MBq; total absorbed dose ([2]; Kidneys, human): 4.66 ± 0.22 μGy/MBq; total absorbed dose ([2]; Liver, human): 9.88 ± 0.03 μGy/MBq; total absorbed dose ([2]; Lung, human): 2.13 ± 0.56 μGy/MBq; total absorbed dose ([2]; Pancreas, human): 2.22 ± 0.07 μGy/MBq; total absorbed dose ([2]; Spleen, human): 3.09 ± 0.35 μGy/MBq; total absorbed dose ([2]; Urinary bladder, human): 0.48 ± 0.32 μGy/MBq; total human effective dose ([2]; administration of 10 mCi (370 MBq)): < 0.6 mSv; Effective does (μSv/MBq) ([2]; human): 1.60 ± 0.15 μSv/MBq; safety of imaging for clinical PET studies ([2]; human, in words): safe
Cc1ccccc1-c1ccc(-c2nc(-c3ccc(CN(C)CC(=O)O)c([18F])c3)no2)cc1C(F)(F)F [[^18F]TZ8247] |  |  | brain uptake in nonhuman primates [1]: high brain uptake
Cc1ccccc1-c1ccc(-c2nc(-c3ccc(CN(C)CCCC(=O)O)c([18F])c3)no2)cc1C(F)(F)F [[^18F]TZ8248] |  |  | brain uptake in nonhuman primates [1]: high brain uptake; brain uptake, standard uptake value (SUV) ([1]; macaque brain, 120 min post-injection): ~2.8
